The test system of assay [1] is P. aeruginosa (PA01). Nature of the assay: Pseudomonas PAO1 biofilm inhibition on lactam-based textiles by SEM. The following applies: for Bacteria (pixels): SEM image; for % bacteria coverage: bacteria pixels/total pixels of SEM image. It is filed as cell-based, Pseudomonas aeruginosa. The protocol:
P. aeruginosa (PA01) was cultured overnight at 37° C. on TSA plates. Prior to use in tests, colonies were added to 20 mL of brain-heart infusion broth (BHI) containing 5 mL of glass beads and homogenised for 30 seconds. The optical density of the organism was measured and adjusted to give 1×10^8 cfu/mL. Inoculum (0.3 ml) was placed directly on modified and unmodified textiles in 24-well plates and incubated overnight in appropriate broth. Textiles were subsequently removed, washed in PBS and fixed for microscopy.
Fixative was prepared as described (Erlandsen, Kristich, Dunny, Wells, J. Histochem Cytochem, 2004), using 2% para-formaldehyde, 2% gluteraldehyde and 0.15M Sodium Cacodylate and 0.15% Alcian Blue, pH 7.4. The fixative was applied (enough to cover the biofilms) to the wells containing the biofilms on suitable substrates for 2 hours, this varied between 2 and 22 hours.
Following fixation, the fixative solution was removed and 0.15M Sodium Cacodylate buffer was added to the samples. The samples were then stored in the fridge until processing. Samples were washed 3×5 mins with […] fresh buffer to remove any remaining glutaraldehyde. Subsequently, a solution of 1% Osmium tetroxide (OsO4) was prepared 1:1 with 0.15M Sodium Cacodylate buffer, and added to the samples before incubating for 1 hour at room temperature. Samples were rinsed with distilled water 3×10 mins. 0.5% aqueous Uranyl acetate was then added to the samples before incubation in the dark for 30 mins at room temperature.
Samples were then dehydrated in an ascending ethanol series:
Samples were transferred from the original 24-well plate into a petri dish of hexamethyldisilazane (HMDS) for 5 mins, then to a second dish for 5 mins before being placed in a new 24-well plate lined with filter paper. The plate was then placed in a desiccator overnight to allow evaporation and drying or samples.
After sputter coating with gold-palladium in an argon filled chamber, samples were viewed under a JEOL JSM-6400 scanning electron microscope and images were assembled using the Photoshop software.
The SEM images were measured and the amount of pixels of textile and pixels of bacteria were determined. The % of bacteria coverage is the bacteria pixels/total pixels.

Assay [2] relates to P. aeruginosa GFP. The experiment in a line: Pseudomonas Aeruginosa-GFP biofilm growth curve inhibition on lactam-based textiles by fluorescence. The class given is cell-based. The following applies: lactam in acrylic emulsion binder, printed, or encapsulated and padded on textile; compared to textile without the lactam. The procedure:
A fluorescent strain of P. aeruginosa was used to allow growth inhibition to be measured by fluorescence. P. aeruginosa GFP was cultured for 2 days at 30° C. on MEA plates. Prior to use in tests, colonies were added to 20 mL of brain-heart infusion broth (BHI) containing 5 mL of glass beads and homogenised for 30 seconds. The optical density was measured and adjusted to give 1×10^8 cfu/m. Subsequently, 0.5 mL of the strain in BHI broth was added to the wells of a 24 well plate containing the substrates. This was then placed in the plate reader and read every hour at […]. The experiment tested a control (textile without lactam coating, the sample (textile coated with lactam) and a positive control (chlorhexidine).

Assay [3] deals with P. aeruginosa (PA01). Nature of the assay: Biofilm growth inhibition on lactam-based acrylic emulsion textiles by viability (AlamarBlue), Pseudomonas. It is filed as cell-based, Pseudomonas aeruginosa. The following applies: for Mean biofilm metabolism (AlamarBlue): acrylic emulsion coated with lactam, overnight, lower than 100 = reduction in biofilm growth. The procedure:
(§1) P. aeruginosa (PA01), S. aureus (Newman's strain) were cultured overnight at 37° C. on TSA 5 plates. C. albicans […] was cultured for 2 days at 30° C. on MEA plates. Prior to use in tests, colonies of each organism were added to 20 mL of brain-heart infusion broth (BHI) containing 5 mL of glass beads and homogenised for 30 seconds. The optical density of each organism was measured and adjusted to give 1×10^7 cfu/mL. Inoculum (0.3 ml) was placed directly on acrylic emulsion coated cotton and PET textiles (with and without lactam) that have been previously positioned inside the wells of 6-well plates and incubated overnight in appropriate broth. Textiles were subsequently removed, washed in PBS and metabolism assessed by AlamarBlue on a plate reader. Data were presented as percentage of no-lactam control. A number lower than 100 indicates a reduction in microorganism biofilm growth for the lactam coated textile compared to uncoated textile.

For assay [4], the system named is S. aureus (Newman's strain). Nature of the assay: Biofilm growth inhibition on lactam-based acrylic emulsion textiles by viability (AlamarBlue), Staphylococcus. The class given is cell-based, Staphylococcus aureus. The settings on record: acrylic emulsion coated with lactam, overnight, lower than 100 = reduction in biofilm growth. The protocol: as §1
Assay [5] deals with C. albicans 3153A. The experiment in a line: Biofilm growth inhibition on lactam-based acrylic emulsion textiles by viability (AlamarBlue), Candida. It is filed as cell-based, Candida albicans. The settings on record: acrylic emulsion coated with lactam, overnight, lower than 100 = reduction in biofilm growth. The procedure: as §1

For the molecule `C=C1C(c2ccc(Cl)cc2)=CC(=O)N1CCC[N+](C)(C)C` [lactam (488) (cationic)], the “Bacteria (pixels)” value in assay [1] (fluorinated polypropylene non-woven coated with cationic lactam, control textile 30,880) is on record as 15,864 pixels. Moreover, the “% bacteria coverage” value in assay [1] (fluorinated polypropylene non-woven coated with cationic lactam, control textile 78.0%) was found to be 36.6%; in assay [1] (fluorinated polypropylene non-woven coated with cationic lactam, control textile 78.0%, listed as Cationic Lactam), 36.6%.
For `C=C1NC(=O)C=C1c1ccc(Cl)cc1` [lactam (488), 4-(4-chlorophenyl)-5-methylene-pyrrol-2-one], the “Pseudomonas Aeruginosa-GFP biofilm growth on the textile (fluorescence growth curve)” value in assay [2] is given as “reduced Pseudomonas Aeruginosa-GFP biofilm growth”. In addition, the “Mean biofilm metabolism (AlamarBlue)” value is 54.89 percentage of no-lactam control in assay [3] (Cotton); 80.95 percentage of no-lactam control in assay [3] (Polyethylene); 33.35 percentage of no-lactam control in assay [4] (Cotton); 47.88 percentage of no-lactam control in assay [4] (Polyethylene); 84.69 percentage of no-lactam control in assay [5] (Cotton); 67.83 percentage of no-lactam control in assay [5] (Polyethylene). In addition, the “biofilm growth compared to textile with no coating (in words)” value in assay [3] (polyethylene and cotton coated with lactam) is given as “reduction in Pseudomonas Aeruginosa biofilm growth”. The “Bacteria (pixels)” value is recorded as 2,660 pixels in assay [1] (polypropylene non-woven coated with lactam in acrylic emulsion, control textile 10,851); 23,381 pixels in assay [1] (polypropylene non-woven printed with lactam in solvents, control textile 26,917); 1,806 pixels in assay [1] (viscose non-woven padded with lactam in polyurea encaps, control textile 16,291). Also, the “% bacteria coverage” value in assay [1] (polypropylene non-woven coated with lactam in acrylic emulsion, control textile 32.1%) was 10.1%; in assay [1] (polypropylene non-woven coated with lactam in acrylic emulsion, control textile 32.1%, listed as lactam), 10.1%; in assay [1] (polypropylene non-woven printed with lactam in solvents, control textile 62.6%), 48.0%; in assay [1] (polypropylene non-woven printed with lactam in solvents, control textile 62.6%, listed as lactam) it was 48.0%; in assay [1] (viscose non-woven padded with lactam in polyurea encaps, control textile 47.8%), 8.7%; in assay [1] (viscose non-woven padded with lactam in polyurea encaps, control textile 47.8%, listed as lactam) it was 8.7%.

The values above are taken from patent US12460346B2, “Lactam coated textile” (Conopco, Inc., priority 2018, dated 2025).
